Test results as given in patent US8765693B2, “Method of inhibiting premature aging of human skin caused by exposure to infrared radiation” (L'Oreal, priority 2012, dated 2014).

System: IRA induced MMP-1
Assay: IRA-induced MMP-1 mRNA expression in primary human dermal fibroblasts
Assay type: cell-based
Settings: for Effects in IRA treated cells: inhibition (MMP-1 mRNA): 24 hrs pre-incubation, 360 J/cm^2 Infrared A, harvested 24 hrs after irradiation; for Effect on IRA induced MMP-1 in vitro (in words): primary human dermal fibroblasts
Method: Primary Human Dermal Fibroblasts
Hydrosun 500H IRA device (Hydrosun Medizintechnik GmbH, Müllheim, Germany). The IRA device was water-filtered and equipped with a black filter and emits wavelengths between 760 and 1400 nm leading to an irradiance of 360 mW/cm^2.
Baicalin: stock 44.8 mM in DMSO, and diluted to 10 μM, 25 μM
Phloretin: stock 50 mM in DMSO, and diluted to 1 μM, 5 μM, and 10 μM as final treatment conditions.
Neohesperidin dihydrochalcone: stock 710 mM in DMSO, and diluted to 100 μM, 500 μM, and 1 mM as final treatment conditions.
Cells were incubated for 24 hrs after irradiation, and then harvested to have MMP-1 mRNA analyzed.

| SMILES | Effects in IRA treated cells: inhibition (MMP-1 mRNA) (1 μM (0.00002%)) | Effects in IRA treated cells: inhibition (MMP-1 mRNA) (5 μM (0.00014%)) | Effects in IRA treated cells: inhibition (MMP-1 mRNA) (10 μM) | Effect on IRA induced MMP-1 in vitro (in words) | Effects in IRA treated cells: inhibition (MMP-1 mRNA) (100 μM (0.006%)) | Effects in IRA treated cells: inhibition (MMP-1 mRNA) (500 μM (0.03%)) | Effects in IRA treated cells: inhibition (MMP-1 mRNA) (1 mM (0.06%)) | Effects in IRA treated cells: inhibition (MMP-1 mRNA) (25 μM (0.001%)) |
| --- | --- | --- | --- | --- | --- | --- | --- | --- |
| O=C(CCc1ccc(O)cc1)c1c(O)cc(O)cc1O [Phloretin] | 22% inhibition with 1 μM+ (0.00002%) | 78% inhibition with 5 μM+ (0.00014%) | 68% inhibition with 10 μM+ (0.0028%) | reduced IRA induced MMP-1 |  |  |  |  |
| COc1ccc(CCC(=O)c2c(O)cc(O[C@@H]3O[C@H](CO)[C@@H](O)[C@H](O)[C@H]3O[C@@H]3O[C@@H](C)[C@H](O)[C@@H](O)[C@H]3O)cc2O)cc1O [Neohesperidin dihydrochalcone] |  |  |  | reduced IRA induced MMP-1 | 100% inhibition with 100 μM+ (0.006%) | 100% inhibition with 500 μM+ (0.03%) | 100% inhibition with 1 mM+ (0.06%) |  |
| O=C(O)[C@H]1O[C@@H](Oc2cc3oc(-c4ccccc4)cc(=O)c3c(O)c2O)[C@H](O)[C@@H](O)[C@@H]1O [Baicalin] |  |  | 26% inhibition with 10 μM | reduced IRA induced MMP-1 |  |  |  | 100% inhibition with 25 μM+ (0.001%) |
